Experiments:
UT in human U87 glioma = test: Cell surface ELISA of UT in U87 glioma; format: cell-based; settings: hUII 10^−8 M, 30 min, absence or presence of the UT C-terminus
Procedure: The human cell line from glioblastoma U87 was obtained from the American Type Culture Collection (LGC Standards, Molsheim, France). U87 cells were maintained in DMEM containing 10% FBS and 1% sodium pyruvate. NHA-Astrocytes (Lonza, Walkersville, MD, USA) were cultivated in DMEM culture medium supplemented with 2 mM glutamine, 5 mM HEPES, 1% non essential amino acids, 1% sodium pyruvate, B27, 25 ng/ml EGF, 1% of the antibiotic-antimycotic solution and 10% FBS. All cells were incubated at 37°C in a humidified atmosphere containing 5% CO2. Culture media were replaced every three days.
Cells were plated at 50 000 cells/well in 96-well plates coated with 0.1 mg/ml poly-L-ornithine (Sigma-Aldrich). […] Cells were fixed with 4% PFA in PBS for 5 min at RT, washed in PBS, and then permeabilized in 0.05% triton X100 (only for permeabilized cells) and non specific binding were blocked with PBS containing 1% FBS for 30 min at RT. […] The cells were washed four times with PBS, a colorimetric alkaline phosphatase substrate was added (SuperSignal ELISA, Thermo scientific, Fisher) and the resulting color reaction was measured using a Viktor multilabel plate reader (PerkinElmer, Courtaboeuf, France). Background absorbance from samples transfected with non-tagged receptors or from cells without first antibodies were systematically measured. […]

[1] = tested on: GABAAR subunit combinations co-expressed with human UT; test: Patch-clamp of GABA current in CHO co-expressing human UT and combinations of GABAAR subunits; format: cell-based
Procedure: CHO-K1 cell lines were obtained from American Type Culture Collection (Manassas, VA, USA). The human UT stable CHO (CHO-UT) was generously provided by Dr Christophe Dubessy (Inserm, Rouen University, France) et generated by CHO electroporation with 20 µg pIRES-neo2-UT DNA and 500 µg sterile sonicated salmon sperm DNA using the EasyJect One electroporation system (Equibio, Angleur, Belgium), followed by repetitive rounds of limiting dilution of cells in G-418 (400 µg/ml) for selection. Normal or stable CHO was grown in Ham-F12 medium supplemented with 10% FBS, 1% antibiotic-antimicotic solution and 2 mM glutamine, at 37°C in a humidified incubator with an atmosphere of 5% CO2. The stable CHO-UT medium was supplemented with the antibiotic G-418 (40 µg/ml).
For transfection, cells were trypsinized (0.05%), triturated in HamF-12 containing 10% FBS media, pelleted by centrifugation, resuspended in 100 µl solution V for nucleofection by an Amaxa Nucleofector Device (Köln, Germany; set to program U-016). Experiments were performed on normal CHO or on the stable CHO-UT cells and transiently transfected with combinations of cDNA encoding α2β3γ2, α2β3γ1, α2β1γ2, α2β3γ1, α2β3, β3γ2 (4 µg of cDNA total/transfection) GABAAR subunits. Cells were seeded on 14-mm poly-L-lysine-coated glass bottom insert dishes at 5×10^5 cells in a volume of 0.5 ml/dish. […]

Substance | UT levels at the cell surface, U87 (UT in human U87 glioma) | Activity on αβ binary complexes [1] | Depression of GABA current, order of subunit combinations [1]
ETPDCFWKYCV (disulfide) [hUII, human urotensin II, synthesized by solid phase methodology] | remained unchanged |  | 
UII: Urotensin II, species not stated at that place (rUII in astrocytes, hUII in CHO and human cells) |  | inactive | markedly depressed the GABA current (β3γ2>α2β3γ2>α2β1γ2)

— PMC3341351, “Down-Regulation of GABAA Receptor via Promiscuity with the Vasoactive Peptide Urotensin II Receptor. Potential Involvement in Astrocyte Plasticity” (PLoS ONE, 2012)
